# Square brackets hold non-standard residues; d marks the D form. Peptide text beside a SMILES is read from it. * marks the point of attachment. dPhe(4-NHCONH2) = NC(=O)Nc1ccc(C[C@@H](N)C(=O)O)cc1; Dihydroorotyl(S) = O=C1C[C@@H](C(=O)*)NC(=O)N1; dPhe(4-Cl) = N[C@H](Cc1ccc(Cl)cc1)C(=O)O; Phe(4-NH2) = Nc1ccc(C[C@H](N)C(=O)O)cc1; d2Nal = N[C@H](Cc1ccc2ccccc2c1)C(=O)O; Lys(iPr) = CC(C)NCCCC[C@H](N)C(=O)O; d3Pal = N[C@H](Cc1cccnc1)C(=O)O
# How the values were obtained:
# prostate volume = assay: Prostate volume by transrectal ultrasound; type: in vivo, men; settings: 32+32 mg
# Experimental: (§1) For each patient, the following parameters were measured or assessed (using the methods discussed below), at time points of screening day 0 (e.g., −7 days, “baseline”), day 14, day 28, and day 42:
# (§2) 2) Efficacy Endpoints—the measured Peak Urinary Flow, Post-void Residual Volume, and Prostate Volume.
# After the initial 6-week treatment period of the exploratory study had been completed, a 12-month follow-up period looking at long-term efficacy commenced. Interim data of the main efficacy variables (IPSS, IPSS Global QoL, prostate volume, urinary flow, and post-void residual volume—measured as set out below) after 6 months' follow-up are also presented herein at Tables 1, 2, 3, and FIG. 1b. FIG. 1b also includes IPSS data at 9 and 12 months.
# The prostate volume was measured by transrectal ultrasound with the patient in a lateral position. The prostatic gland was sonicated from two directions perpendicular to one another resulting in three cursor positions set by the urologist. The volume was calculated automatically. The investigations were performed by urologists by methods known in the art.
# men with BPH = assay: Post-void residual volume by transabdominal ultrasound; type: in vivo; settings: all treatment groups
# Experimental: as §1, §2
# The Post-void Residual Volume (PVR) was evaluated by transabdominal ultrasound. The urine in the patient's bladder was sonicated from two directions perpendicular to one another resulting in three cursor positions set by the urologist. The volume was calculated automatically. The investigations were performed by urologists by methods known in the art.
# testosterone = assay: Serum testosterone concentration-time profile (LC-MS/MS); type: in vivo, men; settings: for Number of patients with testosterone below the castration level 0.5 ng/mL at one or more time-points / Percentage of patients with testosterone below the castration level 0.5 ng/mL at one or more time-points: up to Day 42; for Mean time to second return of testosterone to baseline interval (after the second administration): calculated, not measured values
# [1] = 16+16 mg, after the first administration
# [2] = 16+16 mg, after the second administration
# [3] = 32+32 mg, after the first administration
# [4] = 32+32 mg, after the second administration
# [5] = first dose of the 32+32 mg combined with the single dose 32 mg data
smiles,measurement,setting,value
"CC(=O)N[C@H](Cc1ccc2ccccc2c1)C(=O)N[C@H](Cc1ccc(Cl)cc1)C(=O)N[C@H](Cc1cccnc1)C(=O)N[C@@H](CO)C(=O)N[C@@H](Cc1ccc(NC(=O)[C@@H]2CC(=O)NC(=O)N2)cc1)C(=O)N[C@H](Cc1ccc(NC(N)=O)cc1)C(=O)N[C@@H](CC(C)C)C(=O)N[C@@H](CCCCNC(C)C)C(=O)N1CCC[C@H]1C(=O)N[C@H](C)C(N)=O [Degarelix, D-Alaninamide, N-acetyl-3-(2-naphthalenyl)-D-alanyl-4-chloro-D-phenylalanyl-3-(3-pyridinyl)-D-alanyl-L-seryl-4-[[[(4S)-hexahydro-2,6-dioxo-4-pyrimidinyl]carbonyl]amino]-L-phenylalanyl-4-[(aminocarbonyl)amino]-D-phenylalanyl-L leucyl-N6-(1-methylethyl)-L-lysyl-L-prolyl] (Ac-[d2Nal][dPhe(4-Cl)][d3Pal]S[Phe(4-NH2)](Dihydroorotyl(S))[dPhe(4-NHCONH2)]L[Lys(iPr)]P[dA]-NH2)","Prostate Volume, Change from Baseline, mean (SD)","prostate volume; Day 42, N=12",−9.4 (9.3) mL
same,"Prostate Volume, Percentage Change from Baseline, mean (SD)","prostate volume; Day 42, N=12",−23.5 (20.9) %
same,Mean (SD) Prostate Volume,"prostate volume; Month 6 follow-up, n=7",26.5 (6.0) mL
same,"Prostate Volume, Change from Baseline, mean (SD)","prostate volume; Month 6 follow-up, n=7",−10.6 (8.8) mL
same,"Prostate Volume, Percentage Change from Baseline, mean (SD)","prostate volume; Month 6 follow-up, n=7",−27.1 (17.3) %
same,Mean post-void residual volume,"men with BPH; Day 14, apparent dose dependent way",decreased
same,Mean post-void residual volume versus baseline,men with BPH; Day 42,lower than the baseline value
same,Number of patients in whom post-void residual volume had decreased compared to baseline,men with BPH; Day 42,33 patients
same,Number of patients in whom post-void residual volume increased compared to baseline,men with BPH; Day 42,17 patients
same,Greatest change from baseline in mean testosterone,testosterone; 32 mg,-4.2 ng/mL
same,Mean minimal value of testosterone (Cnadir),testosterone; 32 mg,0.9 ng/mL
same,Mean time-point (tnadir) to Cnadir of testosterone,testosterone; 32 mg,1.3 days
same,Lowest mean testosterone level,"testosterone; 32 mg, Day 1, SD 0.5",0.9 ng/mL
same,Mean testosterone level on Day 42,"testosterone; 32 mg, Day 42 (5.2 at baseline)",5.3 ng/mL
same,Mean time for first return of testosterone to baseline interval after the first administration,"testosterone; 32 mg, SD=5.2",9.1 days
same,Mean area of testosterone concentrations below 0.5 ng/mL,"testosterone; 32 mg, range 0.0-0.1",0.0 ng·days/mL
same,Number of patients with testosterone below the castration level 0.5 ng/mL at one or more time-points,testosterone; 32 mg,3 patients
same,Percentage of patients with testosterone below the castration level 0.5 ng/mL at one or more time-points,testosterone; 32 mg,25%
same,Greatest change from baseline in mean testosterone,testosterone; 64 mg,-4.7 ng/mL
same,Mean minimal value of testosterone (Cnadir),testosterone; 64 mg,0.4 ng/mL
same,Mean time-point (tnadir) to Cnadir of testosterone,testosterone; 64 mg,8.8 days
same,Lowest mean testosterone level,"testosterone; 64 mg, Day 1, SD 0.2",0.4 ng/mL
same,Mean testosterone level on Day 42,"testosterone; 64 mg, Day 42 (5.2 at baseline)",3.0 ng/mL
same,Patients still below testosterone 0.5 ng/mL on Day 42,"testosterone; 64 mg, Day 42, of the 8 patients suppressed",Five
same,Mean area of testosterone concentrations below 0.5 ng/mL,"testosterone; 64 mg, range 0.0-15.2",4.4 ng·days/mL
same,Number of patients with testosterone below the castration level 0.5 ng/mL at one or more time-points,testosterone; 64 mg,9 patients
same,Percentage of patients with testosterone below the castration level 0.5 ng/mL at one or more time-points,testosterone; 64 mg,69%
same,Greatest change from baseline in mean testosterone,testosterone; 16+16 mg,-4.0 ng/mL
same,Lowest mean testosterone level,"testosterone; 16+16 mg, Day 1, SD 0.5",1.4 ng/mL
same,Mean testosterone level on Day 42,"testosterone; 16+16 mg, Day 42 (5.5 at baseline)",4.5 ng/mL
same,Mean time for first return of testosterone to baseline interval after the first administration,"testosterone; 16+16 mg, SD=2.8",6.1 days
same,Mean time to second return of testosterone to baseline interval (after the second administration),"testosterone; 16+16 mg, SD=33.9",19.5 days
same,Mean minimal value of testosterone (Cnadir),testosterone; [1],1.4 ng/mL
same,Mean time-point (tnadir) to Cnadir of testosterone,testosterone; [1],1.1 days
same,Mean minimal value of testosterone (Cnadir),testosterone; [2],2.0 ng/mL
same,Mean time-point (tnadir) to Cnadir of testosterone,testosterone; [2],4.0 days
same,Mean area of testosterone concentrations below 0.5 ng/mL,"testosterone; 16+16 mg, range 0.0-0.0",0.0 ng·days/mL
same,Number of patients with testosterone below the castration level 0.5 ng/mL at one or more time-points,testosterone; 16+16 mg,2 patients
same,Percentage of patients with testosterone below the castration level 0.5 ng/mL at one or more time-points,testosterone; 16+16 mg,15%
same,Greatest change from baseline in mean testosterone,testosterone; 32+32 mg,-4.1 ng/mL
same,Lowest mean testosterone level,"testosterone; 32+32 mg, Day 17 (after second administration), SD 0.3",0.4 ng/mL
same,Subjects that had not regained testosterone levels >0.5 ng/mL at Day 42,"testosterone; 32+32 mg, Day 42",Three
same,Mean testosterone level on Day 42,"testosterone; 32+32 mg, Day 42 (4.5 at baseline)",2.7 ng/mL
same,Mean time for first return of testosterone to baseline interval after the first administration,"testosterone; 32+32 mg, SD=2.6",9.1 days
same,Mean time to second return of testosterone to baseline interval (after the second administration),"testosterone; 32+32 mg, SD=83.5",64.2 days
same,Mean minimal value of testosterone (Cnadir),testosterone; [3],0.6 ng/mL
same,Mean time-point (tnadir) to Cnadir of testosterone,testosterone; [3],3.2 days
same,Mean minimal value of testosterone (Cnadir),testosterone; [4],0.4 ng/mL
same,Mean time-point (tnadir) to Cnadir of testosterone,testosterone; [4],4.3 days
same,Mean area of testosterone concentrations below 0.5 ng/mL,"testosterone; 32+32 mg, range 0.0-15.3",2.8 ng·days/mL
same,Number of patients with testosterone below the castration level 0.5 ng/mL at one or more time-points,testosterone; 32+32 mg,9 patients
same,Percentage of patients with testosterone below the castration level 0.5 ng/mL at one or more time-points,testosterone; 32+32 mg,75%
same,"Number of patients castrated (testosterone below 0.5 ng/mL), for generally 2-4 days",testosterone; [5],8 patients
same,"Percentage of patients castrated (testosterone below 0.5 ng/mL), for generally 2-4 days",testosterone; [5],33%
same,Larger area below and longer time to return to the testosterone baseline interval,testosterone; groups given a total of 64 mg compared to the total dose 32 mg,more than 2 fold
